Test results published in BindingDB's records for doi:10.1021/jm050142+ (Universite De Montreal At Succursale Centre-Ville, 2005).

Molecular target: Cathepsin D (Homo sapiens, UniProt P07339)
Assay: Enzyme Inhibition Measurements
Conditions: 25 °C

Chain of Cathepsin D (P07339 65-162 limits assumed): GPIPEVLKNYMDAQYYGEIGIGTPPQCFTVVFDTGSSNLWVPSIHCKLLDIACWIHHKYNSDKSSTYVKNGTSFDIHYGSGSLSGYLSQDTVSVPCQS
Chain of Cathepsin D (P07339 169-412 limits assumed): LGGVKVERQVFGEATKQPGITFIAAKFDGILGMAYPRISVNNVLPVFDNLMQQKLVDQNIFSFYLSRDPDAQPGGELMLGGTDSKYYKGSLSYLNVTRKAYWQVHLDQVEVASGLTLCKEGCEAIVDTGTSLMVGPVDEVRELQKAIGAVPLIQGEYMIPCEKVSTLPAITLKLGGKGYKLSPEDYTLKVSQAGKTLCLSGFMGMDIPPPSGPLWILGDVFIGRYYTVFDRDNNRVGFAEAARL

CCCCNC(=O)[C@@H](NC(=O)[C@@H]1OCC[C@H]1[C@H](O)[C@H](CC(C)C)NC(=O)[C@H](CCSC)NC(=O)[C@H](CC(C)C)NC(C)=O)C(C)C [(2S)-N-[(1S)-1-{[(1S,2S)-1-[(2R,3S)-2-{[(1S)-1-(butylcarbamoyl)-2-methylpropyl]carbamoyl}oxolan-3-yl]-1-hydroxy-4-methylpentan-2-yl]carbamoyl}-3-(methylsulfanyl)propyl]-2-acetamido-4-methylpentanamide] was tested, and the IC50 was 280 nM.
